PubChem BioAssay AID2060886 (Molecular Pharmacology Branch, DTP, NCI, 2025)

System: 653999-131-R-J2-PDC complex spheroids, growth inhibition
Experiment: Anticancer human tumor 653999-131-R-J2-PDC patient-derived lung adenocarcinoma cell line growth inhibition [RAS]
Conditions: for viability, T/C: stronger effect = lower value
Procedure, shortened: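 Tumour cells grown as complex spheroids with HUVEC endothelial cells and mesenchymal stem cells, treated with RAS pathway inhibitor combinations. Each agent spans half-log steps from near clinical Cmax, or 10 microM where Cmax is unknown.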

[1] = curve of first compound, second compound 0.0316 µM
[2] = curve of first compound, second compound 0.1 µM
[3] = curve of first compound, second compound 0.316 µM
[4] = curve of first compound, second compound 1 µM
[5] = curve of first compound, second compound 3.16 µM
[6] = curve of first compound, second compound 10 µM
[7] = second compound 0.0316 µM, first compound 0.0316 µM
[8] = second compound 0.0316 µM, first compound 0.1 µM
[9] = second compound 0.0316 µM, first compound 0.316 µM
[10] = second compound 0.0316 µM, first compound 1 µM
[11] = second compound 0.1 µM, first compound 0.0316 µM
[12] = second compound 0.1 µM, first compound 0.1 µM
[13] = second compound 0.1 µM, first compound 0.316 µM
[14] = second compound 0.1 µM, first compound 1 µM
[15] = second compound 0.316 µM, first compound 0.0316 µM
[16] = second compound 0.316 µM, first compound 0.1 µM
[17] = second compound 0.316 µM, first compound 0.316 µM
[18] = second compound 0.316 µM, first compound 1 µM
[19] = second compound 1 µM, first compound 0.0316 µM
[20] = second compound 1 µM, first compound 0.1 µM
[21] = second compound 1 µM, first compound 0.316 µM
[22] = second compound 1 µM, first compound 1 µM
[23] = second compound 3.16 µM, first compound 0.0316 µM
[24] = second compound 3.16 µM, first compound 0.1 µM
[25] = second compound 3.16 µM, first compound 0.316 µM
[26] = second compound 3.16 µM, first compound 1 µM
[27] = second compound 10 µM, first compound 0.0316 µM
[28] = second compound 10 µM, first compound 0.1 µM
[29] = second compound 10 µM, first compound 0.316 µM
[30] = second compound 10 µM, first compound 1 µM
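Also: spheroids exposed to the agents for seven days before the readout.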

## CCN1CCN(Cc2ccc(Nc3ncc(F)c(-c4cc(F)c5nc(C)n(C(C)C)c5c4)n3)nc2)CC1
Compound 0.00316 µM
  viability, T/C: 87.8% [middle of 4 runs]
Compound 0.01 µM
  viability, T/C: 96.6% [middle of 4 runs]
Compound 0.0316 µM
  viability, T/C: 73.8% [middle of 4 runs]
Compound 0.316 µM
  viability, T/C: 80.7% [middle of 4 runs]
Compound 1 µM
  viability, T/C: 83.8% [middle of 4 runs]
Curve of compound
  IC50: > 1000 nM

## O=C(c1ccc(F)c(F)c1Nc1ccc(I)cc1F)N1CC(O)([C@@H]2CCCCN2)C1 + C#Cc1c(F)ccc2cc(O)cc(-c3ncc4c(N5CC6CCC(C5)N6)nc(OCC56CCCN5CC(F)C6)nc4c3F)c12
[1]
  IC50: 92.7 nM
[2]
  IC50: 54.7 nM
[3]
  IC50: 106 nM
[4]
  IC50: < 3.16 nM
[5]
  IC50: < 3.16 nM
[6]
  IC50: < 3.16 nM
Second compound 0.0316 µM, first compound 0.00316 µM
  viability, T/C: 88.1%
Second compound 0.0316 µM, first compound 0.01 µM
  viability, T/C: 90.7%
[7]
  viability, T/C: 60.7%
[8]
  viability, T/C: 52.7%
[9]
  viability, T/C: 25.6%
[10]
  viability, T/C: 7.56%
Second compound 0.1 µM, first compound 0.00316 µM
  viability, T/C: 70.9%
Second compound 0.1 µM, first compound 0.01 µM
  viability, T/C: 70.6%
[11]
  viability, T/C: 63%
[12]
  viability, T/C: 34.6%
[13]
  viability, T/C: 24%
[14]
  viability, T/C: 8.72%
Second compound 0.316 µM, first compound 0.00316 µM
  viability, T/C: 62.3%
Second compound 0.316 µM, first compound 0.01 µM
  viability, T/C: 60.1%
[15]
  viability, T/C: 66.6%
[16]
  viability, T/C: 49.9%
[17]
  viability, T/C: 23.8%
[18]
  viability, T/C: 8.41%
Second compound 1 µM, first compound 0.00316 µM
  viability, T/C: 50.1%
Second compound 1 µM, first compound 0.01 µM
  viability, T/C: 39.8%
[19]
  viability, T/C: 51.2%
[20]
  viability, T/C: 43.4%
[21]
  viability, T/C: 19.1%
[22]
  viability, T/C: 6.71%
Second compound 3.16 µM, first compound 0.00316 µM
  viability, T/C: 34.5%
Second compound 3.16 µM, first compound 0.01 µM
  viability, T/C: 31.5%
[23]
  viability, T/C: 31.6%
[24]
  viability, T/C: 21.4%
[25]
  viability, T/C: 12.8%
[26]
  viability, T/C: 5.39%
Second compound 10 µM, first compound 0.00316 µM
  viability, T/C: 26%
Second compound 10 µM, first compound 0.01 µM
  viability, T/C: 22.1%
[27]
  viability, T/C: 11.9%
[28]
  viability, T/C: 11.9%
[29]
  viability, T/C: 8.98%
[30]
  viability, T/C: 2.85%

## CC(Nc1ccc2c(c1)OCCn1cc(N3C(=O)OCC3C(F)F)nc1-2)C(N)=O (configuration not stated)
Compound 0.0316 µM
  viability, T/C: 79.8% [middle of 4 runs]
Compound 0.1 µM
  viability, T/C: 77.8% [middle of 4 runs]
Compound 0.316 µM
  viability, T/C: 57.4% [middle of 4 runs]
Compound 1 µM
  viability, T/C: 45.6% [middle of 4 runs]
Compound 3.16 µM
  viability, T/C: 36.4% [middle of 4 runs]
Compound 10 µM
  viability, T/C: 25.5% [middle of 4 runs]
Curve of compound
  IC50: 727 nM [middle of 4 runs]

## CC(Nc1ccc2c(c1)OCCn1cc(N3C(=O)OCC3C(F)F)nc1-2)C(N)=O (configuration not stated) + C#Cc1c(F)ccc2cc(O)cc(-c3ncc4c(N5CC6CCC(C5)N6)nc(OCC56CCCN5CC(F)C6)nc4c3F)c12
[1]
  IC50: 558 nM
[2]
  IC50: 273 nM
[3]
  IC50: 117 nM
[4]
  IC50: < 31.6 nM
[5]
  IC50: < 31.6 nM
[6]
  IC50: < 31.6 nM
[7]
  viability, T/C: 86.3%
[8]
  viability, T/C: 70.3%
[9]
  viability, T/C: 53.8%
[10]
  viability, T/C: 44.4%
Second compound 0.0316 µM, first compound 3.16 µM
  viability, T/C: 35.1%
Second compound 0.0316 µM, first compound 10 µM
  viability, T/C: 22.3%
[11]
  viability, T/C: 77.2%
[12]
  viability, T/C: 66.9%
[13]
  viability, T/C: 47%
[14]
  viability, T/C: 32.3%
Second compound 0.1 µM, first compound 3.16 µM
  viability, T/C: 26.1%
Second compound 0.1 µM, first compound 10 µM
  viability, T/C: 22.6%
[15]
  viability, T/C: 63.6%
[16]
  viability, T/C: 51.2%
[17]
  viability, T/C: 39.5%
[18]
  viability, T/C: 25.5%
Second compound 0.316 µM, first compound 3.16 µM
  viability, T/C: 18.9%
Second compound 0.316 µM, first compound 10 µM
  viability, T/C: 13.5%
[19]
  viability, T/C: 39.9%
[20]
  viability, T/C: 35.1%
[21]
  viability, T/C: 28.1%
[22]
  viability, T/C: 23%
Second compound 1 µM, first compound 3.16 µM
  viability, T/C: 19%
Second compound 1 µM, first compound 10 µM
  viability, T/C: 11%
[23]
  viability, T/C: 30.1%
[24]
  viability, T/C: 28.4%
[25]
  viability, T/C: 22.9%
[26]
  viability, T/C: 11.8%
Second compound 3.16 µM, first compound 3.16 µM
  viability, T/C: 13.9%
Second compound 3.16 µM, first compound 10 µM
  viability, T/C: 7.23%
[27]
  viability, T/C: 17.1%
[28]
  viability, T/C: 14.3%
[29]
  viability, T/C: 10.6%
[30]
  viability, T/C: 8.07%
Second compound 10 µM, first compound 3.16 µM
  viability, T/C: 5.81%
Second compound 10 µM, first compound 10 µM
  viability, T/C: 4.16%
